In patent US20120029187A1, “HALOALKYLSULFONANILIDE DERIVATIVE” (Nissan Chemical Industries, Ltd., priority 2009, published 2012):

Columns and labels:
Assay type in all cases: in vivo
ducksalad [1] = experiment: Test Example 2: herbicidal effects during the vegetation period under submerged conditions; settings: treatment during the vegetation period under submerged conditions; dose 2.52 g/a
Outline: (§1)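 Barnyardgrass, bulrush and ducksalad were co-sown in alluvial soil flooded to 4 cm and grown in a greenhouse at 25 to 30° C. At the 1- or 2-leaf stage, water-diluted emulsifiable concentrates went onto the water surface at set doses (g/a). Herbicidal effect was scored three weeks later on a graded scale.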

bulrush [2] = experiment: as above; settings: treatment during the vegetation period under submerged conditions; dose 2.52 g/a
Outline: as §1

barnyardgrass [3] = experiment: as above; settings: treatment during the vegetation period under submerged conditions; dose 2.52 g/a
Outline: as §1

common chickweed [4] = experiment: Test Example 3: herbicidal effects in soil treatment; settings: dose 3.2 g/a
Outline: (§2)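 Seeds were sown in sterilized diluvial soil and covered with about 1.5 cm of soil. Compounds, formulated as emulsifiable concentrates and diluted with water, were sprayed evenly over the soil surface at set doses in g/a. Herbicidal effect was scored on a rating scale three weeks later.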

common ragweed [5] = experiment: as above; settings: dose 3.2 g/a
Outline: as §2

water foxtail [6] = experiment: as above; settings: dose 3.2 g/a
Outline: as §2

velvetleaf [7] = experiment: as above; settings: dose 3.2 g/a
Outline: as §2

large crabgrass [8] = experiment: as above; settings: dose 3.2 g/a
Outline: as §2

barnyardgrass [9] = experiment: as above; settings: dose 3.2 g/a
Outline: as §2

Italian ryegrass [10] = experiment: as above; settings: dose 3.2 g/a
Outline: as §2

beadstraw [11] = experiment: as above; settings: dose 3.2 g/a
Outline: as §2

redroot pigweed [12] = experiment: as above; settings: dose 3.2 g/a
Outline: as §2

wild oat [13] = experiment: as above; settings: dose 3.2 g/a
Outline: as §2

giant foxtail [14] = experiment: as above; settings: dose 3.2 g/a
Outline: as §2

common lambsquater [15] = experiment: as above; settings: dose 3.2 g/a
Outline: as §2

ducksalad [16] = experiment: Test Example 1: herbicidal effects in preemergence treatment under submerged conditions; settings: dose 2.52 g/a
Outline: (§3)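 Weed seeds and 2.5-leaf rice seedlings shared each flooded cup of alluvial soil. Dosing, expressed as g per are, was by pouring water-diluted emulsifiable concentrate onto the surface on sowing day. Mortality was graded 0 to 5 after three weeks' growth.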

bulrush [17] = experiment: as above; settings: dose 2.52 g/a
Outline: as §3

barnyardgrass [18] = experiment: as above; settings: dose 2.52 g/a
Outline: as §3

common chickweed [19] = experiment: Test Example 4: herbicidal effect in foliage treatment; settings: dose 3.2 g/a, three weeks after application
Outline: (§4)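 Weeds and crops sown in sterilized diluvial soil under ~1.5 cm cover and grown in greenhouse at 25 to 30° C. At 14 days, water-diluted emulsifiable concentrate sprayed onto foliage at set doses (g/a); herbicidal effect scored on a rating scale three weeks after application.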

common ragweed [20] = experiment: as above; settings: dose 3.2 g/a, three weeks after application
Outline: as §4

water foxtail [21] = experiment: as above; settings: dose 3.2 g/a, three weeks after application
Outline: as §4

velvetleaf [22] = experiment: as above; settings: dose 3.2 g/a, three weeks after application
Outline: as §4

large crabgrass [23] = experiment: as above; settings: dose 3.2 g/a, three weeks after application
Outline: as §4

barnyardgrass [24] = experiment: as above; settings: dose 3.2 g/a, three weeks after application
Outline: as §4

Italian ryegrass [25] = experiment: as above; settings: dose 3.2 g/a, three weeks after application
Outline: as §4

beadstraw [26] = experiment: as above; settings: dose 3.2 g/a, three weeks after application
Outline: as §4

redroot pigweed [27] = experiment: as above; settings: dose 3.2 g/a, three weeks after application
Outline: as §4

wild oat [28] = experiment: as above; settings: dose 3.2 g/a, three weeks after application
Outline: as §4

posumbu knotweed = experiment: as above; settings: dose 3.2 g/a, three weeks after application
Outline: as §4

giant foxtail [29] = experiment: as above; settings: dose 3.2 g/a, three weeks after application
Outline: as §4

common lambsquater [30] = experiment: as above; settings: dose 3.2 g/a, three weeks after application
Outline: as §4

transplanted rice = experiment: Test Example 1: preemergence treatment under submerged conditions, effect on crop; settings: dose 2.52 g/a
Outline: as §3

Row | Compound | C: ducksalad, herbicidal effect (evaluation scale 0-5) (ducksalad [1]) | B: bulrush, herbicidal effect (evaluation scale 0-5) (bulrush [2]) | A: barnyardgrass, herbicidal effect (evaluation scale 0-5) (barnyardgrass [3]) | N: common chickweed, herbicidal effect (evaluation scale 0-5) (common chickweed [4]) | J: common ragweed, herbicidal effect (evaluation scale 0-5) (common ragweed [5]) | G: water foxtail, herbicidal effect (evaluation scale 0-5) (water foxtail [6]) | I: velvetleaf, herbicidal effect (evaluation scale 0-5) (velvetleaf [7]) | D: large crabgrass, herbicidal effect (evaluation scale 0-5) (large crabgrass [8]) | A: barnyardgrass, herbicidal effect (evaluation scale 0-5) (barnyardgrass [9]) | H: Italian ryegrass, herbicidal effect (evaluation scale 0-5) (Italian ryegrass [10]) | O: beadstraw, herbicidal effect (evaluation scale 0-5) (beadstraw [11]) | K: redroot pigweed, herbicidal effect (evaluation scale 0-5) (redroot pigweed [12]) | F: wild oat, herbicidal effect (evaluation scale 0-5) (wild oat [13]) | E: giant foxtail, herbicidal effect (evaluation scale 0-5) (giant foxtail [14]) | L: common lambsquater, herbicidal effect (evaluation scale 0-5) (common lambsquater [15]) | C: ducksalad, herbicidal effect (evaluation scale 0-5) (ducksalad [16]) | B: bulrush, herbicidal effect (evaluation scale 0-5) (bulrush [17]) | A: barnyardgrass, herbicidal effect (evaluation scale 0-5) (barnyardgrass [18]) | N: common chickweed, herbicidal effect (common chickweed [19]) | J: common ragweed, herbicidal effect (common ragweed [20]) | other results
1 | CCCOC(=O)N(c1ccccc1CN1COC(C)(C)C(F)C1=O)S(=O)(=O)C(F)(F)F (stereo not shown) [II-35] | 5 (mortality of 90% or above (nearly complete death)) | 5 (mortality of 90% or above (nearly complete death)) | 5 (mortality of 90% or above (nearly complete death)) | 1 (mortality of at least 5% and less than 20%) | 4 (mortality of at least 70% and less than 90%) | 5 (mortality of 90% or above (nearly complete death)) | 3 (mortality of at least 40% and less than 70%) | 5 (mortality of 90% or above (nearly complete death)) | 5 (mortality of 90% or above (nearly complete death)) | 4 (mortality of at least 70% and less than 90%) | 4 (mortality of at least 70% and less than 90%) | 2 (mortality of at least 20% and less than 40%) | 3 (mortality of at least 40% and less than 70%) | 3 (mortality of at least 40% and less than 70%) | 0 (mortality of less than 5% (almost ineffective)) | 5 (mortality of 90% or above (nearly complete death)) | 5 (mortality of 90% or above (nearly complete death)) | 5 (mortality of 90% or above (nearly complete death)) | 3 (mortality of at least 40% and less than 70%) | 3 (mortality of at least 40% and less than 70%) | G: water foxtail, herbicidal effect (water foxtail [21]): 5 (mortality of 90% or above (nearly complete death)); I: velvetleaf, herbicidal effect (velvetleaf [22]): 0 (mortality of less than 5% (almost ineffective)); D: large crabgrass, herbicidal effect (large crabgrass [23]): 5 (mortality of 90% or above (nearly complete death)); A: barnyardgrass, herbicidal effect (barnyardgrass [24]): 5 (mortality of 90% or above (nearly complete death)); H: Italian ryegrass, herbicidal effect (Italian ryegrass [25]): 4 (mortality of at least 70% and less than 90%); O: beadstraw, herbicidal effect (beadstraw [26]): 4 (mortality of at least 70% and less than 90%); K: redroot pigweed, herbicidal effect (redroot pigweed [27]): 1 (mortality of at least 5% and less than 20%); F: wild oat, herbicidal effect (wild oat [28]): 0 (mortality of less than 5% (almost ineffective)); M: posumbu knotweed, herbicidal effect (posumbu knotweed): 3 (mortality of at least 40% and less than 70%); E: giant foxtail, herbicidal effect (giant foxtail [29]): 3 (mortality of at least 40% and less than 70%); L: common lambsquater, herbicidal effect (common lambsquater [30]): 1 (mortality of at least 5% and less than 20%); a: transplanted rice, effect on crop (evaluation scale 0-5) (transplanted rice): 0 (mortality of less than 5% (almost ineffective))
2 | COC(=O)N(c1ccccc1CN1COC(C)(C)C(F)C1=O)S(=O)(=O)C(F)(F)F (stereo not shown) [II-33] | 5 (mortality of 90% or above (nearly complete death)) | 5 (mortality of 90% or above (nearly complete death)) | 5 (mortality of 90% or above (nearly complete death)) | 3 (mortality of at least 40% and less than 70%) | 5 (mortality of 90% or above (nearly complete death)) | 5 (mortality of 90% or above (nearly complete death)) | 4 (mortality of at least 70% and less than 90%) | 5 (mortality of 90% or above (nearly complete death)) | 5 (mortality of 90% or above (nearly complete death)) | 4 (mortality of at least 70% and less than 90%) | 4 (mortality of at least 70% and less than 90%) | 3 (mortality of at least 40% and less than 70%) | 0 (mortality of less than 5% (almost ineffective)) | 5 (mortality of 90% or above (nearly complete death)) | 0 (mortality of less than 5% (almost ineffective)) | 5 (mortality of 90% or above (nearly complete death)) | 5 (mortality of 90% or above (nearly complete death)) | 5 (mortality of 90% or above (nearly complete death)) | 3 (mortality of at least 40% and less than 70%) | 3 (mortality of at least 40% and less than 70%) | G: water foxtail, herbicidal effect (water foxtail [21]): 5 (mortality of 90% or above (nearly complete death)); I: velvetleaf, herbicidal effect (velvetleaf [22]): 3 (mortality of at least 40% and less than 70%); D: large crabgrass, herbicidal effect (large crabgrass [23]): 4 (mortality of at least 70% and less than 90%); A: barnyardgrass, herbicidal effect (barnyardgrass [24]): 4 (mortality of at least 70% and less than 90%); H: Italian ryegrass, herbicidal effect (Italian ryegrass [25]): 4 (mortality of at least 70% and less than 90%); O: beadstraw, herbicidal effect (beadstraw [26]): 4 (mortality of at least 70% and less than 90%); K: redroot pigweed, herbicidal effect (redroot pigweed [27]): 1 (mortality of at least 5% and less than 20%); F: wild oat, herbicidal effect (wild oat [28]): 0 (mortality of less than 5% (almost ineffective)); M: posumbu knotweed, herbicidal effect (posumbu knotweed): 3 (mortality of at least 40% and less than 70%); E: giant foxtail, herbicidal effect (giant foxtail [29]): 4 (mortality of at least 70% and less than 90%); L: common lambsquater, herbicidal effect (common lambsquater [30]): 0 (mortality of less than 5% (almost ineffective)); a: transplanted rice, effect on crop (evaluation scale 0-5) (transplanted rice): 0 (mortality of less than 5% (almost ineffective))
